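Exposure lasted 48 hours, with cells grown in 96-well plates and compounds tested at five concentrations. TGI denotes the concentration required for complete inhibition of growth.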 Where a SMILES comes first, the peptide text is derived from it. [ ]: non-standard residue; d: D form. The star is where a group is joined. Iva = CC[C](C)(N)C(=O)O; Boc = CC(C)(C)OC(=O)*; X52 = C1CCC(=NO*)C1
Legend:
Assay in all cases: NCI tumour cell line growth inhibition, 48 h
786-0 renal = test system: 786-0 renal
A498 renal = test system: A498 renal
A549 NSCLC = test system: A549 NSCLC
ACHN renal = test system: ACHN renal
BT-549 breast = test system: BT-549 breast
CAKI-1 renal = test system: CAKI-1 renal
CCRF-CEM leukemia = test system: CCRF-CEM leukemia
COLO 205 colon = test system: COLO 205 colon
DU-145 prostate = test system: DU-145 prostate
EKVX NSCLC = test system: EKVX NSCLC
HCT-116 colon = test system: HCT-116 colon
HCT-15 colon = test system: HCT-15 colon
HL-60(TB) leukemia = test system: HL-60(TB) leukemia
HOP-62 NSCLC = test system: HOP-62 NSCLC
HOP-92 NSCLC = test system: HOP-92 NSCLC
HS 578T breast = test system: HS 578T breast
HT29 colon = test system: HT29 colon
IGROV1 ovarian = test system: IGROV1 ovarian
K-562 leukemia = test system: K-562 leukemia
KM12 colon = test system: KM12 colon
LOX IMVI melanoma = test system: LOX IMVI melanoma
M14 melanoma = test system: M14 melanoma
MALME-3M melanoma = test system: MALME-3M melanoma
MCF7 breast = test system: MCF7 breast
MDA-MB-231 breast = test system: MDA-MB-231 breast
MDA-MB-435 = test system: MDA-MB-435
MDA-N = test system: MDA-N
MOLT-4 leukemia = test system: MOLT-4 leukemia
NCI-H23 lung = test system: NCI-H23 lung
NCI-H460 lung = test system: NCI-H460 lung
NCI-H522 lung = test system: NCI-H522 lung
NCI/ADR-RES ovarian = test system: NCI/ADR-RES ovarian
OVCAR-3 ovarian = test system: OVCAR-3 ovarian
OVCAR-4 ovarian = test system: OVCAR-4 ovarian
OVCAR-5 ovarian = test system: OVCAR-5 ovarian
OVCAR-8 ovarian = test system: OVCAR-8 ovarian
PC-3 prostate = test system: PC-3 prostate
RPMI-8226 leukemia = test system: RPMI-8226 leukemia
SF-295 CNS = test system: SF-295 CNS
SF-539 CNS = test system: SF-539 CNS
SK-MEL-2 melanoma = test system: SK-MEL-2 melanoma
SK-MEL-28 melanoma = test system: SK-MEL-28 melanoma
SK-MEL-5 melanoma = test system: SK-MEL-5 melanoma
SK-OV-3 ovarian = test system: SK-OV-3 ovarian
SN12C renal = test system: SN12C renal
SNB-19 CNS = test system: SNB-19 CNS
SNB-75 CNS = test system: SNB-75 CNS
SR leukemia = test system: SR leukemia
SW-620 colon = test system: SW-620 colon
T-47D breast = test system: T-47D breast
TK-10 renal = test system: TK-10 renal
U251 CNS = test system: U251 CNS
UACC-257 melanoma = test system: UACC-257 melanoma
UACC-62 melanoma = test system: UACC-62 melanoma
UO-31 renal = test system: UO-31 renal
HCC-2998 colon = test system: HCC-2998 colon
NCI-H226 lung = test system: NCI-H226 lung
RXF 393 renal = test system: RXF 393 renal

Measured: TGI

COc1ccc(S(=O)(=O)NC(CCC(=O)NN)C(=O)NN)cc1 (configuration not stated)
not listed: HCC-2998 colon | NCI-H226 lung | RXF 393 renal
> 100 µM: all other assays above

CCC(C)(NC(=O)C(C)NC(=O)OC(C)(C)C)C(=O)NC(C)C(=O)NC(C)(CC)C(=O)ON=C1CCCC1 (configuration not stated) (Boc-A[Iva]A[Iva]-X52; configuration not given here)
not listed: 786-0 renal | A549 NSCLC | ACHN renal | EKVX NSCLC | HT29 colon | LOX IMVI melanoma | OVCAR-4 ovarian | SF-539 CNS | SW-620 colon | TK-10 renal | UACC-257 melanoma
> 100 µM: all other assays above

— PubChem BioAssay (NCI)
